We go through 18 compounds from ChEMBL document CHEMBL1146614, “High-affinity thrombin receptor (PAR-1) ligands: a new generation of indole-based peptide mimetic antagonists with a basic amine at the C-terminus” (Bioorg Med Chem Lett, 2003).

A short description of assay [1]: Ability to block thrombin (0.15 nM)-induced platelet aggregation. Type of assay: functional.
Assay [2] can be described thus: Ability to block TRAP-6 (2 uM)-induced platelet aggregation. It counts as functional.
Assay [3] can be described thus: Ability to block U-46,619 (0.3 uM)-induced platelet aggregation; inactive at a concentration of 50 uM. Type of assay: functional.
For assay [4], the target named is T1, Proteinase-activated receptor 1 (Homo sapiens, UniProt P25116).
T1 sequence (P25116 whole entry): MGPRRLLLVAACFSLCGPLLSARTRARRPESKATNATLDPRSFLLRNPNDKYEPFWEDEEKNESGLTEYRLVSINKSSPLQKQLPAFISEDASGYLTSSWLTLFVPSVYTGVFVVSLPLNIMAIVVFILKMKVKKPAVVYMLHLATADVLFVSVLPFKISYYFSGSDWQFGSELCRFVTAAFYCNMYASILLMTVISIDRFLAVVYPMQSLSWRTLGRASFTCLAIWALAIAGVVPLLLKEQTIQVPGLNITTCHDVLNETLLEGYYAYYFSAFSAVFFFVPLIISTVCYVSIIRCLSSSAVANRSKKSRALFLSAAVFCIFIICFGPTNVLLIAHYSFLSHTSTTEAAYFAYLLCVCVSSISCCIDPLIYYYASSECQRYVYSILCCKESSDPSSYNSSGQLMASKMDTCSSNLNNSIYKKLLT
Put plainly: Ability to inhibit the binding of [3H]S-(p-F-Phe)-homoarginine-L-homoarginine-KY-NH2 to thrombin receptor on the membranes of CHRF-288-11 cells.

Assay [5] is described as follows: Ability to block U-46,619 (0.3 uM)-induced platelet aggregation. Type of assay: functional.
A short description of assay [6]: Ability to block collagen (3 ug/mL)-induced platelet aggregation. Type of assay: functional.

A word on the IC50: it is the concentration that inhibits the measured activity by half. A low value points to higher potency. As to `NCC[C@H](NC(=O)[C@H](Cc1ccc(F)c(F)c1)NC(=O)Nc1cccc2c(CN3CCCC3)cn(Cc3c(Cl)cccc3Cl)c12)C(=O)NCCN1CCCC1`, the IC50 in assay [1] is 23000 nM; in assay [2] it was 4300 nM; in assay [3], “Not Active”; in assay [4], 22000 nM.

As for `NCC[C@H](NC(=O)[C@H](Cc1ccc(F)c(F)c1)NC(=O)Nc1ccc2c(CN3CCCC3)cn(Cc3c(Cl)cccc3Cl)c2c1)C(=O)NCCN1CCCC1`, the values for the IC50 in assay [1], in assay [2] and in assay [3] were 460 nM, 50 nM and “Not Active”, respectively.

For `NCCCNC(=O)[C@H](CCN)NC(=O)[C@H](Cc1ccc(Cl)cc1)NC(=O)Nc1ccc2c(CN3CCCC3)cn(Cc3c(Cl)cccc3Cl)c2c1`, the IC50 in assay [1] was 200 nM; in assay [2], 50 nM; in assay [5] it was 17300 nM; in assay [6], 11000 nM; in assay [4], 430 nM.

On to `CSCC[C@H](NC(=O)[C@H](Cc1ccc(F)c(F)c1)NC(=O)Nc1ccc2c(CN3CCCC3)cn(Cc3c(Cl)cccc3Cl)c2c1)C(=O)NCCN`, for which the half-maximal inhibitory concentration (IC50) in assay [1] was found to be 220 nM; in assay [2], 70 nM; in assay [5], 24000 nM; in assay [6] it was 4700 nM; in assay [4], 25 nM.

On to `NCC[C@H](NC(=O)[C@H](Cc1ccc(F)c(F)c1)NC(=O)Nc1ccc2c(CN3CCCC3)cn(Cc3c(Cl)cccc3Cl)c2c1)C(=O)NCc1ccccn1`, for which the IC50 in assay [1] came out at 1100 nM; in assay [2], 190 nM; in assay [5] it was 19800 nM; in assay [6], 8400 nM; in assay [4] it was 330 nM.

Regarding `NCC[C@H](NC(=O)[C@H](Cc1ccc(F)c(F)c1)NC(=O)Nc1ccc2c(CN3CCCC3)cn(Cc3c(Cl)cccc3Cl)c2c1)C(=O)NCCc1ccccc1`, the IC50 is 810 nM in assay [1]; 160 nM in assay [2]; 7600 nM in assay [5]; 3000 nM in assay [6]; 120 nM in assay [4].

As for `NCC[C@H](NC(=O)[C@H](Cc1ccc(F)c(F)c1)NC(=O)Nc1ccc2c(CN3CCCC3)cn(Cc3c(Cl)cccc3Cl)c2c1)C(=O)NCc1ccco1`, the IC50 in assay [1] was 780 nM; in assay [2] it was 70 nM; in assay [3], “Not Active”; in assay [6] it was 7900 nM; in assay [4], 160 nM.

As to `NCC[C@H](NC(=O)[C@H](Cc1ccc(F)c(F)c1)NC(=O)Nc1ccc2c(CN3CCCC3)cn(Cc3c(Cl)cccc3Cl)c2c1)C(=O)NCc1ccccc1`, the IC50 in assay [1] was 340 nM; in assay [2], 160 nM; in assay [3], “Not Active”; in assay [4], 440 nM.

Take `CSC[C@H](NC(=O)[C@H](Cc1ccc(F)c(F)c1)NC(=O)Nc1ccc2c(CN3CCCC3)cn(Cc3c(Cl)cccc3Cl)c2c1)C(=O)NCCN`: the half-inhibitory concentration (IC50) in assay [1] turned out to be 1300 nM; in assay [2] it was 60 nM; in assay [5], 18600 nM; in assay [6] it was 27000 nM; in assay [4], 60 nM.

Regarding `NCCNC(=O)[C@H](Cc1ccncc1)NC(=O)[C@H](Cc1ccccc1F)NC(=O)Nc1ccc2c(CN3CCCC3)cn(Cc3c(Cl)cccc3Cl)c2c1`, the IC50 in assay [1] was 130 nM; in assay [2], 50 nM; in assay [3], “Not Active”; in assay [4], 70 nM.

`NCC[C@H](NC(=O)[C@H](Cc1ccc(F)c(F)c1)NC(=O)Nc1ccc2c(CN3CCCC3)cn(Cc3c(Cl)cccc3Cl)c2c1)C(=O)NCc1cccs1`: the half-inhibitory concentration (IC50) in assay [1] is 800 nM; in assay [2] it was 160 nM; in assay [3] it was “Not Active”; in assay [6], 7000 nM; in assay [4], 230 nM.

Regarding `COc1ccc(CNC(=O)[C@H](CCN)NC(=O)[C@H](Cc2ccc(F)c(F)c2)NC(=O)Nc2ccc3c(CN4CCCC4)cn(Cc4c(Cl)cccc4Cl)c3c2)cc1`, the IC50 in assay [1] was determined as 700 nM; in assay [2], 100 nM; in assay [5], 6400 nM; in assay [6], 6700 nM; in assay [4], 480 nM.

In the case of `NCC[C@H](NC(=O)[C@H](Cc1ccc(F)c(F)c1)NC(=O)Nc1cccc2c1c(CN1CCCC1)cn2Cc1c(Cl)cccc1Cl)C(=O)NCCN1CCCC1`, the IC50 in assay [1] is 40000 nM; in assay [2] it was 16000 nM; in assay [3], “Not Active”.

Regarding `NCC[C@H](NC(=O)[C@H](Cc1ccc(F)c(F)c1)NC(=O)Nc1ccc2c(CN3CCCC3)cn(Cc3c(Cl)cccc3Cl)c2c1)C(=O)NCCc1ccccn1`, the IC50 in assay [1] came out at 880 nM; in assay [2], 150 nM; in assay [5], 10300 nM; in assay [6], 6600 nM; in assay [4], 500 nM.

As for `NCCCNC(=O)[C@H](Cc1cnc[nH]1)NC(=O)[C@H](Cc1ccc(Cl)cc1)NC(=O)Nc1ccc2c(CN3CCCC3)cn(Cc3c(Cl)cccc3Cl)c2c1`, the IC50 is 410 nM in assay [1]; 70 nM in assay [2]; 18600 nM in assay [5]; 30000 nM in assay [6]; 130 nM in assay [4].

As to `NCCNC(=O)[C@H](Cc1cccs1)NC(=O)[C@H](Cc1ccc(F)c(F)c1)NC(=O)Nc1ccc2c(CN3CCCC3)cn(Cc3c(Cl)cccc3Cl)c2c1`, the IC50 was 270 nM in assay [1]; 80 nM in assay [2]; “Not Active” in assay [3]; 16500 nM in assay [6]; 35 nM in assay [4].

`NCCC[C@H](NC(=O)[C@H](Cc1ccc(F)c(F)c1)NC(=O)Nc1ccc2c(CN3CCCC3)cn(Cc3c(Cl)cccc3Cl)c2c1)C(=O)NCCN1CCCC1`: the IC50 in assay [1] was found to be 250 nM; in assay [2] it was 60 nM; in assay [5], 22000 nM; in assay [6], 16000 nM; in assay [4] it was 310 nM.

Regarding `CCNCCNC(=O)[C@H](CCN)NC(=O)[C@H](Cc1ccc(F)c(F)c1)NC(=O)Nc1ccc2c(CN3CCCC3)cn(Cc3c(Cl)cccc3Cl)c2c1`, the IC50 in assay [1] is 410 nM; in assay [2] it was 130 nM; in assay [5], 13700 nM; in assay [4] it was 90 nM.
